Measured values: ChEMBL document CHEMBL1154996, “Inhibitors of dipeptidyl peptidase 8 and dipeptidyl peptidase 9. Part 2: isoindoline containing inhibitors” (Bioorg Med Chem Lett, 2008)
One block for each compound: values may come before it. Activity calls are given as the source filed them. No cut-off for these calls is given here.

Columns and labels:
Dipeptidyl peptidase 4 = Dipeptidyl peptidase 4 (Homo sapiens, UniProt P27487); assay: Inhibition of DPP4
Dipeptidyl peptidase 2 = Dipeptidyl peptidase 2 (Homo sapiens, UniProt Q9UHL4); assay: Inhibition of DPP2
Dipeptidyl peptidase 9 = Dipeptidyl peptidase 9 (Homo sapiens, UniProt Q86TI2); assay: Inhibition of DPP9
Sequence of Dipeptidyl peptidase 9 (Q86TI2 whole entry): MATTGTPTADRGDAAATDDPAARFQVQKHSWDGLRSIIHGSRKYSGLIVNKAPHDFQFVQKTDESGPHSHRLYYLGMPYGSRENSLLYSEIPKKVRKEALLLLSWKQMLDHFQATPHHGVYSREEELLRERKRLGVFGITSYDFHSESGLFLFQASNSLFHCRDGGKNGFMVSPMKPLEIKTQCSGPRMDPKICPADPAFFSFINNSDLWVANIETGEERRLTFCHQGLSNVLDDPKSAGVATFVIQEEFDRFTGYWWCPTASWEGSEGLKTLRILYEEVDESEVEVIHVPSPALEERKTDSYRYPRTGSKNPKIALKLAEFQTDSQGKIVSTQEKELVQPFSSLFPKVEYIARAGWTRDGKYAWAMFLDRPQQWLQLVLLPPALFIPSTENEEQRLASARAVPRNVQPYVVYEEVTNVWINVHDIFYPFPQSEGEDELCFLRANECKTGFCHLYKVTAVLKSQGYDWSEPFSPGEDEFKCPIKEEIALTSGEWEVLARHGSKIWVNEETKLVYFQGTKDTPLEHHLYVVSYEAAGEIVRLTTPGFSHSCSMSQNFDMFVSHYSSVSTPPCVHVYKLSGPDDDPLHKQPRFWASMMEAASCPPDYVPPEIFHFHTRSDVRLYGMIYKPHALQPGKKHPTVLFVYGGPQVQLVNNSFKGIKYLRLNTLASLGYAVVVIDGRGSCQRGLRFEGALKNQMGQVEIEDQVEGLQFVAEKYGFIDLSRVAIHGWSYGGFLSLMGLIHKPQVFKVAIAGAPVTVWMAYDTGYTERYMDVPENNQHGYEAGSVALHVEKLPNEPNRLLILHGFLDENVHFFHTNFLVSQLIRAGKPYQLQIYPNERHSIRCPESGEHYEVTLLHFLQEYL

Dipeptidyl peptidase 8 = Dipeptidyl peptidase 8 (Homo sapiens, UniProt Q6V1X1); assay: Inhibition of DPP8
Sequence of Dipeptidyl peptidase 8 (Q6V1X1 whole entry): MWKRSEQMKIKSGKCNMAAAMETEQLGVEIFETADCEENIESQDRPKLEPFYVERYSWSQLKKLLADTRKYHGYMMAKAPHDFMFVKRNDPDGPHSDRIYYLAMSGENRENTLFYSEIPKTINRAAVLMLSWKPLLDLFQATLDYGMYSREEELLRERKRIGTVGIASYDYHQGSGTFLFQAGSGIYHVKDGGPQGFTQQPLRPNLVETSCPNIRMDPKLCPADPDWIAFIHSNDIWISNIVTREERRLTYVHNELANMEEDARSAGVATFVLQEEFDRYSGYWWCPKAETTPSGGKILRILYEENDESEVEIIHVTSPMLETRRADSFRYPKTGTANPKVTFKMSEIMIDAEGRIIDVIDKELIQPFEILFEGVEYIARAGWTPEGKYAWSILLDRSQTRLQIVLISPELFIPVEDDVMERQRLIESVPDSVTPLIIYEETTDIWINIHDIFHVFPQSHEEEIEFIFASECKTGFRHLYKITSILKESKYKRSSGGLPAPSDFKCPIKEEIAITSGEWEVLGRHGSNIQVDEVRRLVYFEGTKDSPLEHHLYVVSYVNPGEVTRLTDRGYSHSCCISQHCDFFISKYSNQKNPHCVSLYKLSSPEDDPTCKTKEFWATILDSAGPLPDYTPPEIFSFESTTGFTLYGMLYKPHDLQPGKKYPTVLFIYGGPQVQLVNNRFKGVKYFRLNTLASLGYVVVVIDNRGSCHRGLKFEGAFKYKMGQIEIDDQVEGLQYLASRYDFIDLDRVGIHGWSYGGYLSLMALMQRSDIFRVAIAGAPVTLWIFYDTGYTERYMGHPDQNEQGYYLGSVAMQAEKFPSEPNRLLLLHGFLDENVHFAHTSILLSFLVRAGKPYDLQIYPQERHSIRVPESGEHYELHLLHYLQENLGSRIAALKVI

- IC50 (Dipeptidyl peptidase 4): 178 µM
SMILES: N[C@@H](CCCCNc1ccc2ccccc2c1)C(=O)N1Cc2ccccc2C1

- IC50 (Dipeptidyl peptidase 4): 161 µM
SMILES: NCCCC[C@H](N)C(=O)N1Cc2ccccc2C1

- IC50 (Dipeptidyl peptidase 4): > 1000 µM
SMILES: O=C([C@@H]1C[C@@H](NCc2ccccc2)CN1)N1Cc2ccccc2C1

- IC50 (Dipeptidyl peptidase 4): > 250 µM
SMILES: O=C([C@@H]1C[C@H](NCc2ccccc2)CN1)N1Cc2ccccc2C1

- IC50 (Dipeptidyl peptidase 4): > 100 µM
SMILES: CC[C@@H](C)[C@H](N)C(=O)N1Cc2ccc(C)cc2C1

- IC50 (Dipeptidyl peptidase 4): > 250 µM
SMILES: O=C([C@@H]1C[C@@H](Nc2ccc3ccccc3c2)CN1)N1Cc2ccccc2C1

- IC50 (Dipeptidyl peptidase 4): > 100 µM
SMILES: O=C([C@@H]1C[C@H](Nc2ccc3ccccc3c2)CN1)N1Cc2ccccc2C1

- IC50 (Dipeptidyl peptidase 4): > 62.5 µM
SMILES: N[C@@H](CCCCN(Cc1ccccc1)Cc1ccccc1)C(=O)N1Cc2ccccc2C1

- IC50 (Dipeptidyl peptidase 4): > 50 µM
SMILES: N[C@@H](CCCCNCc1ccccc1)C(=O)N1Cc2ccccc2C1

- IC50 (Dipeptidyl peptidase 4): 245 µM
- IC50 (Dipeptidyl peptidase 2): 2.5 µM
SMILES: N[C@@H](CCCCNC(=O)OCc1ccccc1)C(=O)N1Cc2ccccc2C1

- IC50 (Dipeptidyl peptidase 4): > 500 µM
SMILES: N[C@H]1CN[C@H](C(=O)N2Cc3ccccc3C2)C1

- IC50 (Dipeptidyl peptidase 4): > 31.2 µM
SMILES: N[C@@H](CCCCN(c1ccc2ccccc2c1)c1ccc2ccccc2c1)C(=O)N1Cc2ccccc2C1

- IC50 (Dipeptidyl peptidase 4): > 500 µM
- IC50 (Dipeptidyl peptidase 2): 4.5 µM
- IC50 (Dipeptidyl peptidase 9): > 25 µM
SMILES: O=C([C@@H]1C[C@@H](N(Cc2ccccc2)Cc2ccccc2)CN1)N1Cc2ccccc2C1

- Activity (Dipeptidyl peptidase 4): inactive
SMILES: O=C([C@@H]1C[C@H](N(c2cccc3ccccc23)c2cccc3ccccc23)CN1)N1Cc2ccccc2C1

- IC50 (Dipeptidyl peptidase 4): 4.97 µM
SMILES: O=C([C@@H]1C[C@H](Nc2cccc3ccccc23)CN1)N1Cc2ccccc2C1

Further lines, the compound ahead of its results:

SMILES: CC[C@H](C)[C@H](N)C(=O)N1Cc2ccc(C)cc2C1
- IC50 (Dipeptidyl peptidase 4): > 100 µM

SMILES: CC[C@@H](C)[C@H](N)C(=O)N1Cc2cccc(F)c2C1
- IC50 (Dipeptidyl peptidase 4): > 100 µM

SMILES: CC[C@H](C)[C@H](N)C(=O)N1Cc2ccc(I)cc2C1
- IC50 (Dipeptidyl peptidase 4): > 100 µM
- IC50 (Dipeptidyl peptidase 2): 2.6 µM
- IC50 (Dipeptidyl peptidase 9): > 50 µM
- IC50 (Dipeptidyl peptidase 8): > 25 µM

SMILES: CC[C@H](C)[C@H](N)C(=O)N1Cc2ccc(Br)cc2C1
- IC50 (Dipeptidyl peptidase 4): > 100 µM

SMILES: CC[C@@H](C)[C@H](N)C(=O)N1Cc2ccc(C(F)(F)F)cc2C1
- IC50 (Dipeptidyl peptidase 4): > 100 µM
- IC50 (Dipeptidyl peptidase 2): 12.6 µM
- IC50 (Dipeptidyl peptidase 9): > 100 µM
- IC50 (Dipeptidyl peptidase 8): > 100 µM

SMILES: CC[C@H](C)[C@H](N)C(=O)N1Cc2cccc(F)c2C1
- IC50 (Dipeptidyl peptidase 4): > 100 µM

SMILES: CC[C@H](C)[C@H](N)C(=O)N1Cc2ccc(C(F)(F)F)cc2C1
- IC50 (Dipeptidyl peptidase 4): > 100 µM
- IC50 (Dipeptidyl peptidase 2): 13 µM
- IC50 (Dipeptidyl peptidase 9): > 100 µM
- IC50 (Dipeptidyl peptidase 8): > 100 µM

SMILES: CC[C@H](C)[C@H](N)C(=O)N1Cc2cccnc2C1
- IC50 (Dipeptidyl peptidase 4): > 100 µM
- IC50 (Dipeptidyl peptidase 2): > 100 µM

SMILES: O=C([C@@H]1C[C@H](N(c2ccc3ccccc3c2)c2ccc3ccccc3c2)CN1)N1Cc2ccccc2C1
- IC50 (Dipeptidyl peptidase 2): > 100 µM

SMILES: CC[C@H](C)[C@H](N)C(=O)N1Cc2ccc(C(C)(C)C)cc2C1
- IC50 (Dipeptidyl peptidase 4): > 100 µM
- IC50 (Dipeptidyl peptidase 2): > 100 µM
- IC50 (Dipeptidyl peptidase 9): > 100 µM
- IC50 (Dipeptidyl peptidase 8): > 100 µM

SMILES: CC[C@H](C)[C@H](N)C(=O)N1Cc2ccc([N+](=O)[O-])cc2C1
- IC50 (Dipeptidyl peptidase 4): > 50 µM
- IC50 (Dipeptidyl peptidase 2): 66 µM
- IC50 (Dipeptidyl peptidase 9): > 25 µM
- IC50 (Dipeptidyl peptidase 8): > 50 µM

SMILES: CC[C@H](C)[C@H](N)C(=O)N1Cc2ccc(N=[N+]=[N-])cc2C1
- IC50 (Dipeptidyl peptidase 4): > 100 µM
- IC50 (Dipeptidyl peptidase 2): > 50 µM
- IC50 (Dipeptidyl peptidase 8): > 100 µM

SMILES: CC[C@H](C)[C@H](N)C(=O)N1Cc2cccc(C)c2C1
- IC50 (Dipeptidyl peptidase 4): > 100 µM
- IC50 (Dipeptidyl peptidase 2): > 100 µM
- IC50 (Dipeptidyl peptidase 9): > 100 µM
- IC50 (Dipeptidyl peptidase 8): > 100 µM
